Where “and” joins values, the source holds several entries; their conditions need not be identical. Equal entries are not always repeated.
Key:
[1] = target: T1, 14-3-3β/CFTRpS753pS768 complex (Homo sapiens, UniProt P13569+P31946); test: Dose-response fluorescence polarization (FP) assay, compound titration; type: binding; details: for FP signal: With 14-3-3
T1 construct: His6 (cleaved yes); made in house; peptide synthetic
How it was run: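 Compounds were titrated in two-fold dilutions against 10 μM 14-3-3β and FITC-CFTR pS753pS768 peptide (100 nM or 10 nM). Buffer: 10 mM HEPES pH 7.4, 150 mM NaCl, 0.1% Tween20, 1 mg/mL BSA. Polarization was read at ex 485/em 535 nm, and EC50 was derived from a four-parameter variable-slope fit.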

[2] = target: T1, 14-3-3β/CFTRpS753pS768 complex; test: FP assay, 14-3-3β titration at constant compound concentration (apparent KD); type: binding
Protocol: FC-A (100 µM) was added as a positive control and DMSO as the negative control. […] Background polarization was subtracted from all values, n = 3 technical replicates. […] Source data are provided as a Source Data file. […]
The FITC-labeled peptides were dissolved in FP buffer (10 mM HEPES pH 7.4, 150 mM NaCl, 0.1% Tween20, 1 mg/mL BSA) to a final concentration of 100 nM or 10 nM. […] The dilution series were made in 384 Corning Black Round Bottom well plates and their polarization was measured with a Tecan Infinite F500 plate reader (ex. = 485 nm, em. = 535 nm). The method of fitting of the curves was: “log(agonist) vs. response – Variable slope (four parameters)” from GraphPad Prism. The equation is Y = Bottom + (Top-Bottom)/(1 + 10^((LogEC50-X)*HillSlope)).
from the hit validation library.
f the compound, 100 µM FC-A, or both compound and FC-A, 100 µM each. Background polarization was subtracted f
rom all values, n=3 technical replicates.
Source data are provided as a Source Data file.

T1 sequence (P31946 whole entry): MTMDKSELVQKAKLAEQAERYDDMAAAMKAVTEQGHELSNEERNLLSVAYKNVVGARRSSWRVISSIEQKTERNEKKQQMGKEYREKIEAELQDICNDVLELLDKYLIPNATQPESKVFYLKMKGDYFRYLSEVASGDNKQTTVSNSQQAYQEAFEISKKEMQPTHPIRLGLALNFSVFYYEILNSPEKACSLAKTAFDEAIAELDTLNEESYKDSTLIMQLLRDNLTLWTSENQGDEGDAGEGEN
T1 sequence (P13569 747-774 limits assumed): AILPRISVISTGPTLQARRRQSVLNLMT

EC50 ([1]; 14-3-3β 10 μM, labeled CFTRpS753pS768 100 nM, read-out: EC50): 147 µM
FP signal ([1]; compound 476.8 pM): 1
FP signal ([1]; compound 953.7 pM): 3
FP signal ([1]; compound 1.90735e-9 M): 2
FP signal ([1]; compound 3.8147e-9 M): 5
FP signal ([1]; compound 7.6294e-9 M): 5
FP signal ([1]; compound 1.52588e-8 M): 4
FP signal ([1]; compound 3.05176e-8 M): 6
FP signal ([1]; compound 6.10352e-8 M): 6
FP signal ([1]; compound 1.2207e-7 M): 3
FP signal ([1]; compound 2.44141e-7 M): 4
FP signal ([1]; compound 4.88281e-7 M): 4
FP signal ([1]; compound 9.76563e-7 M): 5
FP signal ([1]; compound 1.95313e-6 M): 5
FP signal ([1]; compound 3.90625e-6 M): 6
FP signal ([1]; compound 7.8125e-6 M): 10
FP signal ([1]; compound 1.5625e-5 M): 13
FP signal ([1]; compound 3.125e-5 M): 24
FP signal ([1]; compound 6.25e-5 M): 59
FP signal ([1]; compound 0.000125 M): 124
FP signal ([1]; compound 0.00025 M): 186
FP signal ([1]; compound 0.0005 M): 230
FP signal ([1]; compound 0.001 M): 257
Fluorescence polarization signal, 14-3-3β titration ([2]; CY compound (100 μM), 14-3-3β concentration 7.62939e-9 M): 3.667 and 2.667 and 4.667
Fluorescence polarization signal, 14-3-3β titration ([2]; CY compound (100 μM), 14-3-3β concentration 3.05176e-8 M): 5.667 and 6.667
Fluorescence polarization signal, 14-3-3β titration ([2]; CY compound (100 μM), 14-3-3β concentration 2.44141e-7 M): 8.667 and 10.6667 and 11.6667
Fluorescence polarization signal, 14-3-3β titration ([2]; CY compound (100 μM), 14-3-3β concentration 4.88281e-7 M): 12.6667 and 17.6667 and 16.6667
Fluorescence polarization signal, 14-3-3β titration ([2]; CY compound (100 μM), 14-3-3β concentration 7.8125e-6 M): 36.6667 and 60.6667 and 59.6667
Fluorescence polarization signal, 14-3-3β titration ([2]; CY compound (100 μM), 14-3-3β concentration 1.5625e-5 M): 49.6667 and 67.6667 and 72.6667
Fluorescence polarization signal, 14-3-3β titration ([2]; CY compound (100 μM), 14-3-3β concentration 3.125e-5 M): 68.6667 and 82.6667 and 79.6667
Fluorescence polarization signal, 14-3-3β titration ([2]; CY compound (100 μM), 14-3-3β concentration 6.25e-5 M): 87.6667 and 91.6667 and 95.6667
Fluorescence polarization signal, 14-3-3β titration ([2]; CY compound (100 μM), 14-3-3β concentration 0.000125 M): 105.667 and 110.667 and 108.667
Fluorescence polarization signal, 14-3-3β titration ([2]; CY compound (100 μM), 14-3-3β concentration 0.00025 M): 127.667 and 126.667
Fluorescence polarization signal, 14-3-3β titration ([2]; CY compound (100 μM), 14-3-3β concentration 0.0005 M): 145.667 and 146.667 and 147.667
Fluorescence polarization signal, 14-3-3β titration ([2]; FC-A + CY compound, 14-3-3β concentration 119.2 pM): 1.667
Fluorescence polarization signal, 14-3-3β titration ([2]; FC-A + CY compound, 14-3-3β concentration 3.05176e-8 M): 5.667 and 8.667
Fluorescence polarization signal, 14-3-3β titration ([2]; FC-A + CY compound, 14-3-3β concentration 6.10352e-8 M): 6.667 and 12.6667 and 9.667
Fluorescence polarization signal, 14-3-3β titration ([2]; FC-A + CY compound, 14-3-3β concentration 1.2207e-7 M): 20.6667 and 16.6667 and 13.6667
Fluorescence polarization signal, 14-3-3β titration ([2]; FC-A + CY compound, 14-3-3β concentration 2.44141e-7 M): 27.6667 and 26.6667
Fluorescence polarization signal, 14-3-3β titration ([2]; FC-A + CY compound, 14-3-3β concentration 4.88281e-7 M): 49.6667 and 43.6667
Fluorescence polarization signal, 14-3-3β titration ([2]; FC-A + CY compound, 14-3-3β concentration 9.76563e-7 M): 71.6667 and 68.6667 and 64.6667
Fluorescence polarization signal, 14-3-3β titration ([2]; FC-A + CY compound, 14-3-3β concentration 1.95313e-6 M): 94.6667 and 91.6667 and 86.6667
Fluorescence polarization signal, 14-3-3β titration ([2]; FC-A + CY compound, 14-3-3β concentration 3.90625e-6 M): 110.667 and 106.667 and 104.667
Fluorescence polarization signal, 14-3-3β titration ([2]; FC-A + CY compound, 14-3-3β concentration 7.8125e-6 M): 123.667 and 119.667 and 117.667
Fluorescence polarization signal, 14-3-3β titration ([2]; FC-A + CY compound, 14-3-3β concentration 1.5625e-5 M): 128.667 and 130.667
Fluorescence polarization signal, 14-3-3β titration ([2]; FC-A + CY compound, 14-3-3β concentration 3.125e-5 M): 139.667 and 137.667 and 141.667
Fluorescence polarization signal, 14-3-3β titration ([2]; FC-A + CY compound, 14-3-3β concentration 6.25e-5 M): 145.667 and 146.667 and 143.667
Fluorescence polarization signal, 14-3-3β titration ([2]; FC-A + CY compound, 14-3-3β concentration 0.000125 M): 155.667 and 156.667
Fluorescence polarization signal, 14-3-3β titration ([2]; FC-A + CY compound, 14-3-3β concentration 0.00025 M): 165.667 and 164.667 and 162.667
Fluorescence polarization signal, 14-3-3β titration ([2]; FC-A + CY compound, 14-3-3β concentration 0.0005 M): 178.667 and 174.667 and 172.667
SMILES: CC1NC(=O)C(CCCNC(=N)N)NC(=O)C2CCCN2Cc2cccc(c2)-c2ccccc2CNC(=O)C(CCCNC(=N)N)NC1=O (centres unmarked) [CY007476]

Reference: article PMC9226124, “Macrocycle-stabilization of its interaction with 14-3-3 increases plasma membrane localization and activity of CFTR” (Nature Communications, 2022)
